Results published in US7691825B2, “Adenosine A2B receptor agonists” (King Pharmaceuticals Research and Development, Inc., priority 2006, dated 2010).
Several values for one entry are separate records, joined by “and”; a condition that tells them apart may be missing. Equal values may be shown once. Read-outs that look alike come from different tables or passages of the source.

Legend:
[1] = biological target: T1, hA2A receptors expressed in CHO cells (Homo sapiens, UniProt P29274); experiment: [3H]CGS21680 binding hA2A CHO cells; details: [3H]-CGS 21680, hA2A CHO cell membranes, 180 min at 25° C.; mean ± s.e. mean
T1 construct: expressed in transfected cells; host or cells: CHO cells (stably transfected, per Klotz et al. 1998); membrane preparation
T1 sequence (P29274 whole entry): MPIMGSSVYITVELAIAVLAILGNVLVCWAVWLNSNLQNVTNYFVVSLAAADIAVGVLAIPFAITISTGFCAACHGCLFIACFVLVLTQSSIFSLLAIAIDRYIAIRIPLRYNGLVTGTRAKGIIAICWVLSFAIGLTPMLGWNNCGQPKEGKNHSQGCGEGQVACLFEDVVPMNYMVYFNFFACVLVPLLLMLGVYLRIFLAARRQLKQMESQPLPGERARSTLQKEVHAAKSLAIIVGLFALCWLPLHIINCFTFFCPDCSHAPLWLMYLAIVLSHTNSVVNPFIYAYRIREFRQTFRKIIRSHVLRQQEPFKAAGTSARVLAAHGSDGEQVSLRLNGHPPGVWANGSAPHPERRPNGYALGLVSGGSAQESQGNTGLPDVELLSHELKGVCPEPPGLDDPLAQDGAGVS
Experimental: (§2) The cells are grown adherently and maintained in Dulbecco's Modified Eagles Medium with nutrient mixture F12 (DMEM/F12) without nucleosides, containing 10% fetal calf serum, penicillin (100 U/mL), streptomycin (100 μg/mL), L-glutamine (2 mM) and Geneticin (G418, 0.2 mg/mL) at 37° C. in 5% CO2/95% air. […] For membrane preparation the culture medium is removed and the cells are washed with PBS and scraped off T75 flasks in ice-cold hypotonic buffer (5 mM Tris HCl, 2 mM EDTA, pH 7.4). The cell suspension is homogenized and centrifuged for 30 min at 100,000×g. The membrane pellet is re-suspended in 50 mM Tris HCl buffer pH 7.4 and incubated with 2 UI/mL of adenosine deaminase for 30 min at 37° C.
(§3) Binding of 1 nM [^3H]—CHA to hA1CHO cells (50 μg of protein/assay) is performed using 50 mM Tris HCl buffer pH 7.4 and at least 6-8 different concentrations of agonists studied for an incubation time of 150 min at 25° C. […] Non-specific binding is determined in the presence of 10 μM of CHA and is about 20% of the total binding. […] Filter bound radioactivity is measured by scintillation spectrometry after addition of 5 mL of Aquassure.
(§4) All experimental data are expressed as the mean±standard error of the mean (s.e. mean) of three or four independent experiments performed in duplicate.

[2] = biological target: T2, hA2B receptors expressed in CHO cells (Homo sapiens, UniProt P29275); experiment: cAMP assay hA2B CHO cells; format: cell-based; details: for EC50: stimulation of cAMP levels, hA2B CHO cells, mean ± s.e. mean; for Selectivity hA1/hA2B: ratio hA1 Ki / hA2B EC50; for Selectivity hA2A/hA2B: ratio hA2A Ki / hA2B EC50; for Selectivity hA3/hA2B: ratio hA3 IC50 / hA2B EC50
T2 construct: expressed in transfected cells; host or cells: CHO cells
T2 sequence (P29275 1-332): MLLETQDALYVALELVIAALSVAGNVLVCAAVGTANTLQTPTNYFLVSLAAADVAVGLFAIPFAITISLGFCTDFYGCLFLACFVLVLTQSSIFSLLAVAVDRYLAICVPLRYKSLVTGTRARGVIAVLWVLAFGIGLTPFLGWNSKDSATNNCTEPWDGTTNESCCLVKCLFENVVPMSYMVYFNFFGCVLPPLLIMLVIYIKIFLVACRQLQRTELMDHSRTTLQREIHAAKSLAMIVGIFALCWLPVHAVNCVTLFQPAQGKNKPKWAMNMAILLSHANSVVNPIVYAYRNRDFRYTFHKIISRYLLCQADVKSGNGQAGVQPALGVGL
Experimental: The effects of the tested compounds may be evaluated in functional assays measuring the stimulatory capability of the ligands to increase cAMP levels in hA2B receptors expressed in CHO cells. This may done as described by Pastorin et al. in “Pyrazolo[4,3-e]-1,2,4-triazolo[1,5-c]pyrimidine derivatives as adenosine receptor antagonists.
(§1) For cell preparation CHO cells transfected with human A2B or A3 receptors are washed with phosphate-buffered saline and diluted trypsin, and centrifuged for 10 min at 200 g. […] After the preincubation time at 37° C., the examined ligands (1 nM-10 μM) are added to the mixture and incubated for a further 5 min. The reaction is terminated by the addition of cold 6% trichloroacetic acid (TCA). The TCA suspension is centrifuged at 2000 g for 10 min at 4° C. and the supernatant is extracted four times with water saturated diethyl ether. […] Samples of cyclic AMP standard (0-10 pmoles) are added to each test tube containing the incubation buffer (trizma base 0.1 mM, aminophylline 8.0 mM, 2-mercaptoethanol 6.0 mM, pH 7.4) and [^3H]cyclic AMP in total volume of 0.5 mL. The binding protein previously incubated at 4° C. for 150 min, and after the addition of charcoal is centrifuged at 2000 g for 10 min. The clear supernatant is counted in a Beckman scintillation counter.

[3] = biological target: T3, human A3 receptors in CHO cells (Homo sapiens, UniProt P0DMS8); experiment: cAMP assay hA3 CHO cells; format: cell-based; details: cyclic AMP assay, mean ± s.e. mean
T3 construct: expressed in transfected cells; host or cells: CHO cells
T3 sequence (P0DMS8 1-318): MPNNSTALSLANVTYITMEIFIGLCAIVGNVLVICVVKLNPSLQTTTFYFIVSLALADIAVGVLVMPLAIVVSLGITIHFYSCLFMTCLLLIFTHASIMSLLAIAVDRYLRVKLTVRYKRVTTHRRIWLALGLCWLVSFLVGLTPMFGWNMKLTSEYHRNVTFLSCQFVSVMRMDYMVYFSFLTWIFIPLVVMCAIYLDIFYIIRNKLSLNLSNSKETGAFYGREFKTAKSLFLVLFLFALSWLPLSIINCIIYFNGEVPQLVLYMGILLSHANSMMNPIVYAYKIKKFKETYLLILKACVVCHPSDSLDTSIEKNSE
Experimental: as §1

[4] = biological target: T4, hA1 receptors expressed in CHO cells (Homo sapiens, UniProt P30542); experiment: [3H]CHA binding hA1 CHO cells
T4 sequence (P30542 1-326): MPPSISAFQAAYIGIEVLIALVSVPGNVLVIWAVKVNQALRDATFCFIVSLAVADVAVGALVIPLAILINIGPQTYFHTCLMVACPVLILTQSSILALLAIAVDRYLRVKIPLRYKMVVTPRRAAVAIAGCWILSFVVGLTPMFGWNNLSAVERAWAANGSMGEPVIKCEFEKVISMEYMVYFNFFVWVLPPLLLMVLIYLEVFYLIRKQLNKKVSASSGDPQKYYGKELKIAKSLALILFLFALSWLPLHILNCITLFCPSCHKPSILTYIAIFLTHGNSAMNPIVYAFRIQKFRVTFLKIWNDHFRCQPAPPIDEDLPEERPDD
Experimental: as §2, §3, §4

CCNC(=O)[C@H]1O[C@@H](n2cnc3c(NNC(=O)c4ccccc4)ncnc32)[C@H](O)[C@@H]1O [Compound 9b, (2S, 3S, 4R, 5R)-5-[6-(N′-Benzoyl-hydrazino)-9H-purin-9-yl]-3,4-dihydroxy-tetrahydrofuran-2 carboxylic acid ethylamide]
Ki [1]: > 1000 nM
EC50 [2]: > 1000 nM
IC50 [3]: > 1000 nM
melting point: 174 to 175 °C and 173 to 174 °C
Ki [4]: > 1000 nM

CCNC(=O)[C@H]1O[C@@H](n2cnc3c(NNC(=O)c4ccc(Cl)cc4)ncnc32)[C@H](O)[C@@H]1O [Compound 10b, (2S, 3S, 4R, 5R)-5-{6-[N′-(4-Chlorobenzoyl)-hydrazino]-9H-purin-9-yl}-3,4-dihydroxy-tetrahydrofuran-2-carboxylic acid ethylamide]
Ki [1]: > 1000 nM
EC50 [2]: > 1000 nM
IC50 [3]: > 1000 nM
melting point: 188 to 189 °C
Ki [4]: > 1000 nM

CCNC(=O)[C@H]1O[C@@H](n2cnc3c(NNC(=O)c4cccnc4)ncnc32)[C@H](O)[C@@H]1O [Compound 11b, (2S, 3S, 4R, 5R)-3,4-Dihydroxy-5-{6-[N′-(pyridine-3-carbonyl)-hydrazino]-9H-purin-9-yl}-tetrahydrofuran-2-carboxylic acid ethylamide]
Ki [1]: > 1000 nM
EC50 [2]: > 1000 nM
IC50 [3]: > 1000 nM
melting point: 170 °C
Ki [4]: > 1000 nM

CCNC(=O)[C@H]1O[C@@H](n2cnc3c(NNC(=O)c4ccco4)ncnc32)[C@H](O)[C@@H]1O [Compound 12b, (2S, 3S, 4R, 5R)-5-{6-[N′-(Furan-2-carbonyl)-hydrazino]-9H-purin-9-yl}-3,4-dihydroxy-tetrahydrofuran-2-carboxylic acid ethylamide]
Ki [1]: > 1000 nM
Selectivity hA1/hA2B [2]: >12.19
Selectivity hA2A/hA2B [2]: >12.19
Selectivity hA3/hA2B [2]: >12.19
EC50 [2]: 82 ± 10 nM
IC50 [3]: > 1000 nM
melting point: 233 to 234 °C
Ki [4]: > 1000 nM

CCNC(=O)[C@H]1O[C@@H](n2cnc3c(NNC(=O)c4ccc(Br)o4)ncnc32)[C@H](O)[C@@H]1O [Compound 13b, (2S, 3S, 4R, 5R)-5-{6-[N′-(5-Bromo-furan-2-carbonyl)-hydrazino]-9H-purin-9-yl}-3,4-dihydroxy-tetrahydrofuran-2-carboxylic acid ethylamide]
melting point: 171 °C

CCNC(=O)[C@H]1O[C@@H](n2cnc3c(NNC(=O)c4ccc(C)o4)ncnc32)[C@H](O)[C@@H]1O [Compound 14b, (2S, 3S, 4R, 5R)-3,4-Dihydroxy-5-{6-[N′-(5-methyl-furan-2-carbonyl)-hydrazino]-9H-purin-9-yl}-tetrahydrofuran-2-carboxylic acid ethylamide]
Ki [1]: 1300 ± 50 nM
Selectivity hA1/hA2B [2]: 3.08
Selectivity hA2A/hA2B [2]: 5.73
Selectivity hA3/hA2B [2]: >4.40
EC50 [2]: 227 ± 18 nM
IC50 [3]: > 1000 nM
melting point: 154 to 155 °C
Ki ([4]; read-out: [3H]CHA binding hA1 CHO cells Ki, 1 nM [3H]-CHA, hA1 CHO cell membranes, 150 min at 25° C., mean ± s.e. mean): 700 ± 25 nM

CCNC(=O)[C@H]1O[C@@H](n2cnc3c(NNC(=O)c4nc([N+](=O)[O-])cn4C)ncnc32)[C@H](O)[C@@H]1O [Compound 15b, (2S, 3S, 4R, 5R)-3,4-Dihydroxy-5-{6-[N′-(1-methyl-4-nitro-1H-imidazole-2-carbonyl)-hydrazino]-9H-purin-9-yl}-tetrahydrofuran-2-carboxylic acid ethylamide]
Ki [1]: > 1000 nM
EC50 [2]: > 1000 nM
IC50 [3]: > 1000 nM
melting point: 169 to 170 °C
Ki [4]: > 1000 nM

CCNC(=O)[C@H]1O[C@@H](n2cnc3c(NNC(=O)c4ccc(C)s4)ncnc32)[C@H](O)[C@@H]1O [Compound 16b, (2S, 3S, 4R, 5R)-3,4-Dihydroxy-5-{6-[N′-(5-methyl-thiophene-2-carbonyl)-hydrazino]-9H-purin-9-yl}-tetrahydrofuran-2-carboxylic acid ethylamide]
Ki [1]: > 1000 nM
Selectivity hA1/hA2B [2]: >3.66
Selectivity hA2A/hA2B [2]: >3.66
Selectivity hA3/hA2B [2]: >3.66
EC50 [2]: 273 ± 12 nM
IC50 [3]: > 1000 nM
melting point: 153 to 154 °C
Ki [4]: > 1000 nM
